Source: patent US20100286092A1, “BETA-LACTAMASE INHIBITORS” (priority 2007, published 2010)

How the values were obtained:
Conditions in all cases: in the presence of a fixed amount (8 μg/mL) of Ceftazidime; CAMHB, 16-20 hours at 37° C.
[1] = tested on: E. coli expressing the Class A ESBL SHV-5; format: cell-based
Excerpt: (§1) To determine the ability of test compounds to potentiate the inhibition of the growth of bacterial strains producing beta-lactamase enzymes, classic cell based screening assays were employed. Four bacteria strains producing beta-lactamase enzymes were used: K. pneumoniae expressing the Class A Extended Spectrum Beta-Lactamase (ESBL) CTX-M-15, E. coli expressing the Class A ESBL SHV-5, E. cloacae expressing the Class C P99+, and K. pneumoniae expressing the Class A carbapenemase KPC-2. In order to evaluate the ability of test compounds to inhibit beta-lactamase activity, Applicants used a modification of the broth microdilution assay. The assay was conducted in Cation Adjusted Mueller Hinton Broth (CAMHB, BD #212322, BD Diagnostic Systems, Sparks, Md.). Bacteria strains were grown for 3-5 hours in CAMBH broth. All four strains were grown in presence of 50 μg/mL ampicillin to ensure resistance is maintained. In the meantime, test compounds were diluted in DMSO to a 0.1 mg/mL stock. The compounds were added to a microtiter plate and were diluted in 2-fold serial dilutions in CAMHB in a final concentration range of 8 μg/mL to 0.015 μg/ml. An overlay of CAMHB containing a cephalosporin was added to the compounds at a final static concentration of 8 μg/ml. […] Each of these compound plates are made in quadruplicate, one for each bacteria strain. In addition to the titration of test compounds the MICs of a panel of cephalosporins is also tested to ensure the strains are behaving consistently from test to test. Once the test compound and cephalosporin are added the plates can be inoculated. Inocula are conducted according to CLSI broth microdilution method. After inoculation the plates are incubated for 16-20 hours at 37° C. then the Minimal Inhibitory Concentration (MIC) of the test compound is determined visually.
(§2) Using the methodology described above, examples of the current invention were evaluated for their ability to inhibit the growth of β-lactamase producing bacteria in the presence of a β-lactam antibiotic. […] NT=Not Tested.

[2] = tested on: K. pneumoniae expressing the Class A Extended Spectrum Beta-Lactamase (ESBL) CTX-M-15; format: cell-based
Excerpt: as §1, §2

[3] = tested on: K. pneumoniae expressing the Class A carbapenemase KPC-2
Excerpt: as §1, §2

[4] = tested on: E. cloacae expressing the Class C P99+; format: cell-based
Excerpt: as §1, §2

SMILES | MIC of example compound, E. coli SHV-5 + 8 μg/mL CAZ [1] | MIC of example compound, K. pneumoniae CTX-M-15 + 8 μg/mL CAZ [2] | MIC of example compound, K. pneumoniae KPC-2 + 8 μg/mL CAZ [3] | MIC of example compound, E. cloacae P99 AmpC + 8 μg/mL CAZ [4]
O=C(Cc1cccs1)N[C@@H](Cc1cccc(C(=O)O)c1O)B(O)O [Example 1, (1R)-1-(2-thiophene-2-yl-acetylamino)-2-(2-hydroxy-3-carboxyphenyl)ethyl-1-boronic acid] | C (C represents an MIC of <1 μg/mL) | C (C represents an MIC of <1 μg/mL) | C (C represents an MIC of <1 μg/mL) | –
O=C(O)COc1cccc(CC(=O)N[C@@H](Cc2cccc(C(=O)O)c2O)B(O)O)c1 [Example 7, (1R)-1-[3-(carboxymethoxy)-phenyl]acetylamino-(3-carboxy-2-hydroxy)benzyl-methylboronic acid] | C (C represents an MIC of <1 μg/mL) | C (C represents an MIC of <1 μg/mL) | C (C represents an MIC of <1 μg/mL) | –
O=C(Cc1cc(Br)cs1)N[C@@H](Cc1cccc(C(=O)O)c1O)B(O)O [Example 9, (1R)-1-(2-(4-bromo-thiophen-2-nyl)acetylamino)-2-(2-hydroxy-3-carboxyphenyl)ethyl-1-boronic acid] | C (C represents an MIC of <1 μg/mL) | C (C represents an MIC of <1 μg/mL) | C (C represents an MIC of <1 μg/mL) | –
CCC(=O)N[C@@H](Cc1cccc(C(=O)O)c1O)B(O)O [Example 16, (1R)-1-(propionylamino)-2-(2-hydroxy-3-carboxyphenyl)ethyl-1-boronic acid] | – | C (C represents an MIC of <1 μg/mL) | C (C represents an MIC of <1 μg/mL) | C (C represents an MIC of <1 μg/mL)
COc1ccc(OC)c(CC(=O)N[C@@H](Cc2cccc(C(=O)O)c2O)B(O)O)c1 [Example 17, (1R)-1-(2-(2,5-dimethoxyphenyl)-acetylamino)-2-(2-hydroxy-3-carboxyphenyl)ethyl-1-boronic acid] | A (A represents an MIC>8 μg/mL) | C (C represents an MIC of <1 μg/mL) | – | C (C represents an MIC of <1 μg/mL)
O=C(CO)N[C@@H](Cc1cccc(C(=O)O)c1O)B(O)O [Example 19, (1R)-1-Hydroxyacetylamino-1-(3-carboxy-2-hydroxy)benzyl-methyl boronic acid] | A (A represents an MIC>8 μg/mL) | C (C represents an MIC of <1 μg/mL) | C (C represents an MIC of <1 μg/mL) | –
O=C(O)c1cccc(C[C@H](NC(=O)C2CC2)B(O)O)c1O [Example 20, (1R)-1-Cyclopropanecarbonyl-amino-1-(3-carboxy-2-hydroxy)benzyl-methylboronic acid] | – | C (C represents an MIC of <1 μg/mL) | C (C represents an MIC of <1 μg/mL) | C (C represents an MIC of <1 μg/mL)
CCCCCC(=O)N[C@@H](Cc1cccc(C(=O)O)c1O)B(O)O [Example 21, (1R)-1-Hexanoylamino-(3-carboxy-2-hydroxy)benzyl-methylboronic acid] | C (C represents an MIC of <1 μg/mL) | C (C represents an MIC of <1 μg/mL) | C (C represents an MIC of <1 μg/mL) | –
O=C(N[C@@H](Cc1cccc(C(=O)O)c1O)B(O)O)c1ccc(F)cc1 [Example 26, (1R)-1-(4-Fluorobenzoylamino)-(3-carboxy-2-hydroxy)benzyl-methylboronic acid] | – | C (C represents an MIC of <1 μg/mL) | C (C represents an MIC of <1 μg/mL) | C (C represents an MIC of <1 μg/mL)
COc1cccc(C(=O)N[C@@H](Cc2cccc(C(=O)O)c2O)B(O)O)c1 [Example 29, (1R)-1-(3-methoxybenzoylamino)-2-(2-hydroxy-3-carboxyphenyl)ethyl-1-boronic acid] | C (C represents an MIC of <1 μg/mL) | C (C represents an MIC of <1 μg/mL) | C (C represents an MIC of <1 μg/mL) | –
COc1ccccc1C(=O)N[C@@H](Cc1cccc(C(=O)O)c1O)B(O)O [Example 34, (1R)-1-(2-methoxybenzoylamino)-2-(2-hydroxy-3-carboxyphenyl)ethyl-1-boronic acid] | A (A represents an MIC>8 μg/mL) | – | C (C represents an MIC of <1 μg/mL) | –
O=C(N[C@@H](Cc1cccc(C(=O)O)c1O)B(O)O)c1ccc(O)cc1 [Example 36, (1R)-1-(4-Hydroxybenzoyl)-amino-1-(3-carboxy-2-hydroxy)benzyl-methylboronic acid] | – | C (C represents an MIC of <1 μg/mL) | C (C represents an MIC of <1 μg/mL) | C (C represents an MIC of <1 μg/mL)
CC(=O)NCC(=O)N[C@@H](Cc1cccc(C(=O)O)c1O)B(O)O [Example 37, (1R)-1-(2-acetamidoacetylamino)-2-(2-hydroxy-3-carboxyphenyl)ethyl-1-boronic acid] | – | C (C represents an MIC of <1 μg/mL) | C (C represents an MIC of <1 μg/mL) | C (C represents an MIC of <1 μg/mL)
NCCC(=O)N[C@@H](Cc1cccc(C(=O)O)c1O)B(O)O.O=CO [Example 38, (1R)-1-(3-aminopropanoylamino)-2-(2-hydroxy-3-carboxyphenyl)ethyl-1-boronic acid formate salt] | A (A represents an MIC>8 μg/mL) | A (A represents an MIC>8 μg/mL) | C (C represents an MIC of <1 μg/mL) | –
O=C(O)c1cccc(C[C@H](NC(=O)c2c(Cl)cccc2Cl)B(O)O)c1O [Example 43, (1R)-1-(2,6-Dichlorobenzoyl)-amino-1-(3-carboxy-2-hydroxy)benzyl-methylboronic acid] | A (A represents an MIC>8 μg/mL) | A (A represents an MIC>8 μg/mL) | A (A represents an MIC>8 μg/mL) | –
Cn1nc(-c2ccccc2)cc1C(=O)N[C@@H](Cc1cccc(C(=O)O)c1O)B(O)O [Example 44, (1R)-1-(1-methyl-3-phenyl-1H-pyrazole-5-carbonyl-amino)-2-(2-hydroxy-3-carboxyphenyl)ethyl-1-boronic acid] | A (A represents an MIC>8 μg/mL) | A (A represents an MIC>8 μg/mL) | – | –
O=C(N[C@@H](Cc1cccc(C(=O)O)c1O)B(O)O)c1ccno1 [Example 46, (1R)-1-(isoxazole-5-carbonyl-amino)-2-(2-hydroxy-3-carboxyphenyl)ethyl-1-boronic acid] | – | C (C represents an MIC of <1 μg/mL) | C (C represents an MIC of <1 μg/mL) | C (C represents an MIC of <1 μg/mL)
Cc1nc(-c2cccc(C(=O)N[C@@H](Cc3cccc(C(=O)O)c3O)B(O)O)c2)no1 [Example 47, (1R)-1-[3-(5-methyl-[1,2,4]oxadiazol-3-yl)-benzoyl]-amino-1-(3-carboxy-2-hydroxy)benzyl-methylboronic acid] | A (A represents an MIC>8 μg/mL) | A (A represents an MIC>8 μg/mL) | – | –
O=C(N[C@@H](Cc1cccc(C(=O)O)c1O)B(O)O)c1ccc(N2CCOCC2)nc1 [Example 48, (1R)-1-(6-morpholin-4-yl-pyridine-3-carbonyl)-amino-1-(3-carboxy-2-hydroxy)benzyl-methylboronic acid] | A (A represents an MIC>8 μg/mL) | – | C (C represents an MIC of <1 μg/mL) | –
